Assays:
Puccinia recondita = experiment: In vivo preventive test on Puccinia recondita (brown rust on wheat); conditions: wheat, spray, graded 12 days after contamination vs control plants
Description: In Vivo Preventive Test on Puccinia recondita (Brown Rust on Wheat) […] Wheat plants (“Scipion” variety), sown in starter cups on a 50/50 peat soil-pozzolana substrate and grown at 22° C., are treated at the 1-leaf stage (10 cm height) by spraying with the active ingredient prepared as described above. Plants, used as controls, are treated with the mixture of acetone/tween/DMSO/water not containing the active material. After 24 hours, the plants are contaminated by spraying the leaves with an aqueous suspension of Puccinia recondita spores (100 000 spores per ml). The spores are collected from an infected plant and are suspended in water containing 2.5 ml/1 of Tween 80 at 10%. The contaminated wheat plants are incubated for 24 hours at 20° C. and at 100% relative humidity, and then for 10 days at 20° C. and at 70-80% relative humidity. Grading (% of efficacy) is carried out 12 days after the contamination, in comparison with the control plants.

[1] = log P by HPLC on reversed phase columns (EEC directive 79/831 Annex V.A8); type: physicochemical; conditions: HPLC/LC-MS at pH 2.7, 0.1% formic acid in water / acetonitrile, gradient 10% to 95%
Uromyces appendiculatus = experiment: In vivo preventive test on Uromyces appendiculatus (bean rust); conditions: preventive spray, bean plants, grading 11 days after contamination
Description: In Vivo Preventive Test on Uromyces appendiculatus (Bean Rust) […] Bean plants (“Saxa” variety), sown in starter cups on a 50/50 peat soil-pozzolana substrate and grown at 24° C., are treated at the 2-leaf stage (9 cm height) by spraying with the active ingredient prepared as described above. Plants, used as controls, are treated with the mixture of acetone/tween/DMSO/water not containing the active material. After 24 hours, the plants are contaminated by spraying the leaves with an aqueous suspension of Uromyces appendiculatus spores (150 000 spores per ml). The spores are collected from infected plants and are suspended in water containing 2.5 ml/1 of Tween 80 at 10%. The contaminated bean plants are incubated for 24 hours at 20° C. and at 100% relative humidity, and then for 10 days at 20° C. and at 70-80% relative humidity. Grading (% of efficacy) is carried out 11 days after the contamination, in comparison with the control plants.

[2] = Table 2, amines of formula (III-a)

logP^[a] ([1]; Table 1, formula (I)) | SMILES | Eff. % (Puccinia recondita; dose 500 ppm) | further results
4.36^[a] | CCC1(C)CC(C)c2c(NC(=O)c3ccc(Cl)nc3C(F)F)cccc21 (mixture of isomers) [Example 83] |  | Eff. % (Puccinia recondita; dose 100 ppm): 83%; Eff. % (Uromyces appendiculatus; 100 ppm): 72%
3.99^[a] | CC1CC(C)(C)c2cccc(NC(=O)c3ccc(Cl)nc3C(F)F)c21 (racemic) [Example 18] | 89% | 
2.99^[a] | CCON=C1CC(C)c2c(NC(=O)c3cc(C)cnc3C(F)F)cccc21 (racemic) [Example 50] | 94% | Eff. % (Uromyces appendiculatus; 500 ppm): 100%
3.46^[a] | CCCCON=C1CC(C)c2c(NC(=O)c3cc(C)cnc3C(F)F)cccc21 (racemic) [Example 53] |  | 
3.31^[a] | Cc1cnc(C(F)F)c(C(=O)Nc2cccc3c2C(C)CC32CC2)c1 (racemic) [Example 54] |  | 
4.06^[a] | CC1CC(C)(C)c2cccc(NC(=O)c3cc(Cl)cnc3C(F)F)c21 (racemic) [Example 55] | 72% | 
3.73^[a] | CC1CC2(CC2)c2cccc(NC(=O)c3ccc(Cl)nc3C(F)F)c21 (racemic) [Example 58] | 81% | Eff. % (Uromyces appendiculatus; 500 ppm): 95%
3.68^[a] | Cc1cnc(C(F)F)c(C(=S)Nc2cccc3c2C(C)CC32CC2)c1 (racemic) [Example 68] |  | Eff. % (Puccinia recondita; dose 100 ppm): 100%
3.52^[a] | CCC1OC(CC)(CC)c2cccc(NC(=O)c3cc(C)cnc3C(F)F)c21 (racemic) [Example 72] |  | 
2.64^[a] | CCC1OC(C)(C)c2cccc(NC(=O)c3cc(C)cnc3C(F)F)c21 (racemic) [Example 73] |  | Eff. % (Puccinia recondita; dose 100 ppm): 78%
3.00^[a] | Cc1cnc(C(F)F)c(C(=O)Nc2cccc3c2C(C(C)C)OC3(C)C)c1 (racemic) [Example 75] |  | 
3.73^[a] | CC1CC(C)(C)c2c(Cl)ccc(NC(=O)c3cccnc3C(F)F)c21 (stereo not drawn) [Example 16] |  | 
3.55^[a] | Cc1cnc(C(F)F)c(C(=O)Nc2cccc3c2C(C)CC3(C)C)c1 (stereo not drawn) [Example 21] | 72% | Eff. % (Uromyces appendiculatus; 500 ppm): 88%
2.37^[a] | Cc1cnc(C(F)F)c(C(=O)Nc2cccc3c2C(C)OC3(C)C)c1 (stereo not drawn) [Example 22] | 83% | 
3.15^[a] | CCC1(CC)OC(C)c2c(NC(=O)c3cc(C)cnc3C(F)F)cccc21 (stereo not drawn) [Example 26] |  | 
3.79^[a] | CC1CC(C)(C)c2cccc(NC(=O)c3c(C(F)F)ccnc3C(F)F)c21 (stereo not drawn) [Example 28] |  | 
2.61^[a] | CON=C1CC(C)c2c(NC(=O)c3cc(C)cnc3C(F)F)cccc21 (stereo not drawn) [Example 29] |  | 
3.79^[a] | Cc1cnc(C(F)F)c(C(=O)Nc2cccc3c2C(C)C(C)C3(C)C)c1 (stereo not drawn) [Example 35] | 93% | 
3.35^[a] | Cc1cnc(C(F)F)c(C(=O)Nc2cccc3c2CC(C)(C)C3)c1 [Example 48] |  | 
4.39^[a] | CCC1(CC)Cc2c(NC(=O)c3cc(C)cnc3C(F)F)cccc2C1C (stereo not drawn) [Example 61] | 78% | 
3.65^[a] | Cc1cnc(C(F)F)c(C(=O)Nc2cccc3c2CC(C)(C)C3C)c1 (stereo not drawn) [Example 63] | 83% | 
4.74^[a] | Cc1cnc(C(F)F)c(C(=S)Nc2cccc3c2CC(C(C)C)C3(C)C)c1 (stereo not drawn) [Example 67] |  | Eff. % (Puccinia recondita; dose 100 ppm): 89%; Eff. % (Uromyces appendiculatus; 100 ppm): 100%
3.59^[a] | Cc1cnc(C(F)F)c(C(=O)Nc2cccc3c2C(C)C(C)(C)C3)c1 (stereo not drawn) [Example 86] |  | 
3.08^[a] | CC1(C)CCc2c(NC(=O)c3cccnc3C(F)F)cccc21 [Example 92] |  | 
3.97^[a] | CC1(C)CC(C(Cl)Cl)c2c(NC(=O)c3cccnc3C(F)F)cccc21 (stereo not drawn) [Example 96] |  | 
3.71^[a] | CC1CC(=CCl)c2cccc(NC(=O)c3cccnc3C(F)F)c21 (stereo not drawn) [Example 98] |  | 

The next lines start with the molecule.

SMILES | logP^[a] ([1]; Table 1, formula (I)) | Eff. % (Puccinia recondita; dose 500 ppm) | further results
CC1CC(C(C)(C)C)c2cccc(NC(=O)c3cccnc3C(F)F)c21 (mixture of isomers) [Example 93] | 3.94^[a] |  | 
CC1OC(C)(C)c2cccc(NC(=O)c3ccc(Cl)nc3C(F)F)c21 (racemic) [Example 24] | 2.77^[a] | 89% | Eff. % (Uromyces appendiculatus; 500 ppm): 100%
CC(C)CC1CCc2c(NC(=O)c3cccnc3C(F)F)cccc21 (racemic) [Example 41] | 3.94^[a] | 98% | Eff. % (Uromyces appendiculatus; 500 ppm): 100%
Cc1cnc(C(F)F)c(C(=O)Nc2cccc3c2CC(C(C)C)C3(C)C)c1 (racemic) [Example 44] |  | 83% | Eff. % (Uromyces appendiculatus; 500 ppm): 93%
CC(C)C1Cc2c(NC(=O)c3ccc(Cl)nc3C(F)F)cccc2C1(C)C (racemic) [Example 45] | 4.77^[a] | 89% | Eff. % (Uromyces appendiculatus; 500 ppm): 88%
CCC1OC(C)(C)c2cccc(NC(=O)c3ccc(Cl)nc3C(F)F)c21 (racemic) [Example 74] | 3.09^[a] |  | Eff. % (Puccinia recondita; dose 100 ppm): 72%
CON=C1CCc2c(NC(=O)c3cccnc3C(F)F)cccc21 [Example 5] | 2.15^[a] |  | 
CCON=C1CCc2c(NC(=O)c3cccnc3C(F)F)cccc21 [Example 8] | 2.54^[a] | 78% | 
CC1(C)OCc2c(NC(=O)c3cccnc3C(F)F)cccc21 [Example 17] | 2.01^[a] | 100% | Eff. % (Uromyces appendiculatus; 500 ppm): 100%
CC1CC(C)(C)c2c(F)ccc(NC(=O)c3ccc(Cl)nc3C(F)F)c21 (stereo not drawn) [Example 19] | 4.09^[a] | 100% | Eff. % (Uromyces appendiculatus; 500 ppm): 79%
CC(C)C1Cc2c(NC(=S)c3ccc(Cl)nc3C(F)F)cccc2C1(C)C (stereo not drawn) [Example 66] | 5.11^[a] |  | Eff. % (Puccinia recondita; dose 100 ppm): 98%; Eff. % (Uromyces appendiculatus; 100 ppm): 85%
CC1c2c(cccc2NC(=O)c2ccc(Cl)nc2C(F)F)CC1(C)C (stereo not drawn) [Example 87] | 3.96^[a] |  | 
CCCC1CC(C)c2c(NC(=O)c3cccnc3C(F)F)cccc21 (stereo not drawn) [Example 89] | 3.79^[a] |  | 
CC1(C)CC(C(F)F)c2c(NC(=O)c3cccnc3C(F)F)cccc21 (stereo not drawn) [Example 94] | 3.15^[a] |  | 
CC(C)(C)CC1CC(C)(C)c2cccc(NC(=O)c3cccnc3C(F)F)c21 (stereo not drawn) [Example 95] | 4.54^[a] |  | 
O=C(Nc1cccc2c1C(=C(Cl)Cl)CC2)c1cccnc1C(F)F [Example 97] | 2.96^[a] |  | 
CC1CC(=C(Cl)Cl)c2cccc(NC(=O)c3cccnc3C(F)F)c21 (stereo not drawn) [Example 99] | 3.13^[a] |  | 
CC1CC(C)(C)c2ccc(F)c(NC(=O)c3cccnc3C(F)F)c21 (stereo not drawn) [Example 100] | 3.26^[a] |  | 
Cl.Nc1cccc2c1C(=C(Cl)Cl)CC2 [III-a-3] |  |  | logP^[a] [1, 2]: 3.42^[a]
CC1CC(=C(Cl)Cl)c2cccc(N)c21.Cl (stereo not drawn) [III-a-4] |  |  | logP^[a] [1, 2]: 3.60^[a]
CC(C)(C)CC1CC(C)(C)c2cccc(N)c21 (stereo not drawn) [III-a-6] |  |  | logP^[a] [1, 2]: 4.98^[a]
CC1(C)CC(C(Cl)Cl)c2c(N)cccc21 (stereo not drawn) [III-a-7] |  |  | logP^[a] [1, 2]: 4.39^[a]
CC(C)(C)CC1CCc2cccc(N)c21.Cl (stereo not drawn) [III-a-8] |  |  | logP^[a] [1, 2]: 4.04^[a]
CC1(C)CC(C(F)F)c2c(N)cccc21 (stereo not drawn) [III-a-9] |  |  | logP^[a] [1, 2]: 2.75^[a]
CC1CC(C)(C)c2ccc(F)c(N)c21 (stereo not drawn) [III-a-10] |  |  | logP^[a] [1, 2]: 3.71^[a]

From patent publication US9376391B2, “Difluoromethyl-nicotinic-tetrahydronaphthyl carboxamides as fungicides” (BAYER CROPSCIENCE AKTIENGESELLSCHAFT, priority 2012, dated 2016)
